The values below come from US20250032581A1, “COMPOSITIONS AND ARTICLES COMPRISING AN ADNF POLYPEPTIDE” (RAMOT AT TEL-AVIV UNIVERSITY LTD., priority 2021, published 2025).

SMILES strings stand for the structures.

The subject of one experiment is Tyr mice. In words: Developmental milestone assessment, weight and length of Tyr mouse pups. In kind it is in vivo. As to the method:
Animals—Animals were housed under a 12-hour light/dark cycle, with food and water ad-libitum. Mouse pups were subcutaneously administrated with NAP [having an amino acid sequence NAPVSIPQ (SEQ ID NO: 2), 25 μg NAP/1 ml saline] as described (8, 12). At 21 days of age mice were administered daily intranasal NAP in vehicle solution (“DD”—7.5 mg/ml of NaCl, 1.7 mg/ml of citric acid, 3 mg/ml of disodium phosphate dihydrate, and 0.2 mg/ml of 50% benzalkonium chloride solution) (0.5 μg NAP/5p1 DD) (8, 9, 12, and U.S. Pat. No. 10,912,819 to Gozes). These mice continued to behavioral analysis as described hereinbelow. The noninvasive intranasal route was chosen as these experiments required daily handling and administration. Age (weeks) of mice during behavioral experiments (mean±SEM) was as follows: Catwalk—9.23±0.15, grooming—10±0.15, social approach—10.5±0.12, odor-discrimination—12.12±0.13, hanging-wire—13±0.14, hotplate—13.18±0.13. Group size was determined following previous experiments (12). Pups were randomly allocated to either the NAP or DD group according to sex and genotype. All procedures involving animals were conducted under the supervision and approval of the institutional animal care and use committee of Tel Aviv University and the Israeli Ministry of Health.
Developmental milestone assessment and fostering—This experiment included animals from 16 litters in 2 experimental batches. It was performed as previously described (12) with slight modifications. Experimenters were blinded to sex and genotype during experimental procedures. Sexes were grouped if no statistically significant sex differences were discovered.
Additional behavioral assessments— • Fostering: To enable daily handling necessary for developmental milestone assessment and drug treatment, Tyr pups were fostered by ICR females which are known to be excellent dams. Tyr pups were moved after birth to an ICR female mouse who gave birth up to 48 hours prior. ICR litter was culled according to the number of Tyr pups that were added. One day afterwards the remaining ICR pups were euthanized so only Tyr pups were left in the litter. • Pup litter distribution analysis: The genotyping results at p1 after placement with the foster mother was used for this measurement. […] The same day pups were randomized to either NAP or Saline treatment groups according to genotype and sex results and developmental milestone assessment was performed from p1 to p21. As animal randomization ended up with unequal male/female ratios for certain groups and no statistical differences were found between the sexes in any of the 4 treatment groups (T test), the sexes […], [That is except for eye opening, where a significant difference was observed between the sexes in the Tyr group (P=0.047, no significance in the other three treatment groups)]. Pup paws were tattooed using a 31-gauge needle and tattoo ink (Ketchum Manufacturing Co., catalog 329AA) for identification on P1 and, until P21, underwent daily measurements for length and weight and observation for eye opening. Pups were injected daily with NAP, 1 hour prior to the tests as previously described^1.
Briefly, for ear twitch reflex, a cotton tip was gently brushed against the tip of the ear three times, between postnatal days 7-15 or until the pup responded correctly for two consecutive days. For air righting reflex, the pup was held up-side down and released ˜10.5 cm above the cage, containing 5 cm of shavings. The test was performed between postnatal days 8-21 or until the pup landed on the shavings with all four paws, for two consecutive days. For surface righting reflex, pups were placed on their backs on a level surface, the test was performed between postnatal days 1-13 until the pups was able to right itself with all four paws on the surface in under a second for two consecutive days. For eye opening, mice were observed daily until both eyes were open (eyelids separated completely). […]

The test system of another experiment is ADNP^+/− MOUSE. Set-up: key: corrections by NAP treatment (+). The conditions noted are these: Adnp+/− mouse (second symbol); cited from earlier work.

Regarding `CC[C@H](C)[C@H](NC(=O)[C@H](CO)NC(=O)[C@@H](NC(=O)[C@@H]1CCCN1C(=O)[C@H](C)NC(=O)[C@@H](N)CC(N)=O)C(C)C)C(=O)N1CCC[C@H]1C(=O)N[C@@H](CCC(N)=O)C(=O)O` [NAP, NAPVSIPQ], the rooting reflex result in the experiment on Tyr mice (Tyr mice, data not shown) is reported as “induced rooting in Tyr mice”. The “surface-righting, first day of acquisition” value in the experiment on Tyr mice (Tyr pups, daily s.c. NAP, WT 8.69±0.42, Tyr 10.14±0.36) was 8.81 ± 0.33 days. Moreover, the “air-righting, first day of acquisition” value with Tyr mice (Tyr pups, daily s.c. NAP, WT 12.96±0.28, Tyr 15.29±0.15) was 14.63 ± 0.38 days. Besides, in the experiment with Tyr mice (WT female mice, data not shown), the body weight result is “no effect observed on WT female mice”. Moreover, the eye opening entry in the experiment on Tyr mice (WT females, data not shown) is “no NAP effect was observed in WT females”; with Tyr mice (female Tyr mice, Tyr 16±0.37, WT 14.93±0.43) it was 14.78 ± 0.46 days; in the experiment with Tyr mice (males, data not shown), “No genotype/NAP effect was observed on males”. The developmental milestones entry with Tyr mice (WT littermates, data not shown) is given as “no effect on WT littermates except for the cliff aversion response”. Further, in the experiment with ADNP^+/− MOUSE, the “NAP efficacy: visual evoked potential/axonal transport” value is on record as “+/+”.
